Results published in article PMC5666424, “Marine-Derived 2-Aminoimidazolone Alkaloids. Leucettamine B-Related Polyandrocarpamines Inhibit Mammalian and Protozoan DYRK & CLK Kinases” (Marine Drugs, 2017).

What was measured:
Assay in all cases: KinomeScan
Format in all cases: binding
Details in all cases: 1 μM
WEE1 = target: T1, WEE1 (Homo sapiens, UniProt P30291)
T1 construct: purchased DiscoverX (KINOMEscan)
Method: (§1) Assays were performed essentially as described previously. For most assays, kinase-tagged T7 phage strains were grown in parallel in 24-well blocks in an E. coli host derived from the BL21 strain. E. coli were grown to log-phase and infected with T7 phage from a frozen stock (multiplicity of infection ~0.1) and incubated with shaking at 32 °C until lysis (~90 min). The lysates were centrifuged (6000× g) and filtered (0.2 μm) to remove cell debris. The remaining kinases were produced in HEK-293 cells and subsequently tagged with DNA for qPCR detection. […] The liganded beads were blocked with excess biotin and washed with blocking buffer (SeaBlock (Pierce, ThermoFisher Scientific, Illkirch, France), 1% BSA, 0.05% Tween 20, 1 mM DTT) to remove unbound ligand and to reduce non-specific phage binding. […] An 11-point threefold serial dilution of each test compound was prepared in 100% DMSO at 100× final test concentration which and subsequently diluted to 1× in the assay. All reactions were performed in polystyrene 96-well plates in a final volume of 0.135 mL. […] The kinase concentration in the eluates was measured by qPCR.

[1] = target: T2, JAK2(JH1domain-catalytic) (Homo sapiens, UniProt O60674)
T2 construct: JAK2(JH1domain-catalytic); purchased DiscoverX (KINOMEscan)
Method: as §1

ULK2 = target: T3, ULK2 (Homo sapiens, UniProt Q8IYT8)
T3 construct: purchased DiscoverX (KINOMEscan)
Method: as §1

EPHA3 = target: T4, EPHA3 (Homo sapiens, UniProt P29320)
T4 construct: purchased DiscoverX (KINOMEscan)
Method: as §1

TRKC = target: T5, TRKC (Homo sapiens, UniProt Q16288)
T5 construct: purchased DiscoverX (KINOMEscan)
Method: as §1

HIPK1 = target: T6, HIPK1 (Homo sapiens, UniProt Q86Z02)
T6 construct: purchased DiscoverX (KINOMEscan)
Method: as §1

[2] = target: T7, ABL1(H396P)-phosphorylated (Homo sapiens, UniProt P00519, H396P)
T7 construct: purchased DiscoverX (KINOMEscan)
Method: as §1

SNARK = target: T8, SNARK (Homo sapiens, UniProt Q9H093)
T8 construct: purchased DiscoverX (KINOMEscan)
Method: as §1

SYK = target: T9, SYK (Homo sapiens, UniProt P43405)
T9 construct: purchased DiscoverX (KINOMEscan)
Method: as §1

CSNK2A1 = target: T10, CSNK2A1 (Homo sapiens, UniProt P68400)
T10 construct: purchased DiscoverX (KINOMEscan)
Method: as §1

TAK1 = target: T11, TAK1 (Homo sapiens, UniProt O43318)
T11 construct: purchased DiscoverX (KINOMEscan)
Method: as §1

LCK = target: T12, LCK (Homo sapiens, UniProt P06239)
T12 construct: purchased DiscoverX (KINOMEscan)
Method: as §1

NDR2 = target: T13, NDR2 (Homo sapiens, UniProt Q9Y2H1)
T13 construct: purchased DiscoverX (KINOMEscan)
Method: as §1

BMX = target: T14, BMX (Homo sapiens, UniProt P51813)
T14 construct: purchased DiscoverX (KINOMEscan)
Method: as §1

TTK = target: T15, TTK (Homo sapiens, UniProt P33981)
T15 construct: purchased DiscoverX (KINOMEscan)
Method: as §1

YSK1 = target: T16, YSK1 (Homo sapiens, UniProt O00506)
T16 construct: purchased DiscoverX (KINOMEscan)
Method: as §1

NEK9 = target: T17, NEK9 (Homo sapiens, UniProt Q8TD19)
T17 construct: purchased DiscoverX (KINOMEscan)
Method: as §1

TIE2 = target: T18, TIE2 (Homo sapiens, UniProt Q02763)
T18 construct: purchased DiscoverX (KINOMEscan)
Method: as §1

CDKL5 = target: T19, CDKL5 (Homo sapiens, UniProt O76039)
T19 construct: purchased DiscoverX (KINOMEscan)
Method: as §1

EPHB4 = target: T20, EPHB4 (Homo sapiens, UniProt P54760)
T20 construct: purchased DiscoverX (KINOMEscan)
Method: as §1

MAP3K3 = target: T21, MAP3K3 (Homo sapiens, UniProt Q99759)
T21 construct: purchased DiscoverX (KINOMEscan)
Method: as §1

CTK = target: T22, CTK (Homo sapiens, UniProt P42679)
T22 construct: purchased DiscoverX (KINOMEscan)
Method: as §1

ACVR1 = target: T23, ACVR1 (Homo sapiens, UniProt Q04771)
T23 construct: purchased DiscoverX (KINOMEscan)
Method: as §1

[3] = target: T24, EGFR(L747-S752del, P753S) (Homo sapiens, UniProt P00533, DEL747-752/P753S)
T24 construct: purchased DiscoverX (KINOMEscan)
Method: as §1

MAP4K2 = target: T25, MAP4K2 (Homo sapiens, UniProt Q12851)
T25 construct: purchased DiscoverX (KINOMEscan)
Method: as §1

KIT(D816H) = target: T26, KIT(D816H) (Homo sapiens, UniProt P10721, D816H)
T26 construct: purchased DiscoverX (KINOMEscan)
Method: as §1

MAP3K15 = target: T27, MAP3K15 (Homo sapiens, UniProt Q6ZN16)
T27 construct: purchased DiscoverX (KINOMEscan)
Method: as §1

OSR1 = target: T28, OSR1 (Homo sapiens, UniProt O95747)
T28 construct: purchased DiscoverX (KINOMEscan)
Method: as §1

FLT3(D835H) = target: T29, FLT3(D835H) (Homo sapiens, UniProt P36888, D835H)
T29 construct: purchased DiscoverX (KINOMEscan)
Method: as §1

EPHA8 = target: T30, EPHA8 (Homo sapiens, UniProt P29322)
T30 construct: purchased DiscoverX (KINOMEscan)
Method: as §1

TNK2 = target: T31, TNK2 (Homo sapiens, UniProt Q07912)
T31 construct: purchased DiscoverX (KINOMEscan)
Method: as §1

SLK = target: T32, SLK (Homo sapiens, UniProt Q9H2G2)
T32 construct: purchased DiscoverX (KINOMEscan)
Method: as §1

[4] = target: T33, ABL1(F317I)-phosphorylated (Homo sapiens, UniProt P00519, F317I)
T33 construct: purchased DiscoverX (KINOMEscan)
Method: as §1

INSR = target: T34, INSR (Homo sapiens, UniProt P06213)
T34 construct: purchased DiscoverX (KINOMEscan)
Method: as §1

ULK3 = target: T35, ULK3 (Homo sapiens, UniProt Q6PHR2)
T35 construct: purchased DiscoverX (KINOMEscan)
Method: as §1

[5] = target: T36, ABL1(M351T)-phosphorylated (Homo sapiens, UniProt P00519, M351T)
T36 construct: purchased DiscoverX (KINOMEscan)
Method: as §1

T5 sequence (Q16288 32-839): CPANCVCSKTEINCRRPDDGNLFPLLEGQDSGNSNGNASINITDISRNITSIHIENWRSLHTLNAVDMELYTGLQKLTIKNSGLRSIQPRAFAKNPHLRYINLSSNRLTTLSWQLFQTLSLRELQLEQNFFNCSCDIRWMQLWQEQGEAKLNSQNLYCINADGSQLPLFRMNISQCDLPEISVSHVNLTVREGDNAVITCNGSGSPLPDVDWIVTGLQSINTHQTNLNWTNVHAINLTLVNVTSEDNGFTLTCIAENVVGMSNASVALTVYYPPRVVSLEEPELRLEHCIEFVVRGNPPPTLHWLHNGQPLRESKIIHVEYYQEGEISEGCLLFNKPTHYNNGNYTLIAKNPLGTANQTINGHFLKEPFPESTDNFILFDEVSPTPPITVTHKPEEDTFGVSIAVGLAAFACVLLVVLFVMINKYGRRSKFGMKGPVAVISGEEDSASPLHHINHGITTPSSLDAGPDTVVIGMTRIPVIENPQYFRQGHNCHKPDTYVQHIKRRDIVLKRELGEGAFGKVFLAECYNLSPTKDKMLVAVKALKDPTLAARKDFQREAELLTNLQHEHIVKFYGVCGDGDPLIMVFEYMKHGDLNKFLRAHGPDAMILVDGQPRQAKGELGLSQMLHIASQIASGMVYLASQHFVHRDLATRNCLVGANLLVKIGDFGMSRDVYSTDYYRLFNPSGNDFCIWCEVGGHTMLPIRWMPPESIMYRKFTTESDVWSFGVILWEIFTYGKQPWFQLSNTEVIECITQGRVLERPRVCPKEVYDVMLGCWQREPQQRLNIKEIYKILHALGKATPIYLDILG
T24 sequence (P00533 with tags, fused parts or gaps DEL747-752/P753S limits assumed): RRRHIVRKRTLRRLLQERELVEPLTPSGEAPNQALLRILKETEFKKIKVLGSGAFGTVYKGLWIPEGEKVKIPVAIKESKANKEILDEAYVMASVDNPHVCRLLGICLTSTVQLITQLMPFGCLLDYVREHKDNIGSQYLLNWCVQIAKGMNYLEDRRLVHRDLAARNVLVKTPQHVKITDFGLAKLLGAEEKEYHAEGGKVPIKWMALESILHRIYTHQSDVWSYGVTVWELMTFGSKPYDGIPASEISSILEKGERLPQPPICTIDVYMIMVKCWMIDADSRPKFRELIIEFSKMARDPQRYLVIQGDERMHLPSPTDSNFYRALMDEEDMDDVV
T19 sequence (O76039 whole entry): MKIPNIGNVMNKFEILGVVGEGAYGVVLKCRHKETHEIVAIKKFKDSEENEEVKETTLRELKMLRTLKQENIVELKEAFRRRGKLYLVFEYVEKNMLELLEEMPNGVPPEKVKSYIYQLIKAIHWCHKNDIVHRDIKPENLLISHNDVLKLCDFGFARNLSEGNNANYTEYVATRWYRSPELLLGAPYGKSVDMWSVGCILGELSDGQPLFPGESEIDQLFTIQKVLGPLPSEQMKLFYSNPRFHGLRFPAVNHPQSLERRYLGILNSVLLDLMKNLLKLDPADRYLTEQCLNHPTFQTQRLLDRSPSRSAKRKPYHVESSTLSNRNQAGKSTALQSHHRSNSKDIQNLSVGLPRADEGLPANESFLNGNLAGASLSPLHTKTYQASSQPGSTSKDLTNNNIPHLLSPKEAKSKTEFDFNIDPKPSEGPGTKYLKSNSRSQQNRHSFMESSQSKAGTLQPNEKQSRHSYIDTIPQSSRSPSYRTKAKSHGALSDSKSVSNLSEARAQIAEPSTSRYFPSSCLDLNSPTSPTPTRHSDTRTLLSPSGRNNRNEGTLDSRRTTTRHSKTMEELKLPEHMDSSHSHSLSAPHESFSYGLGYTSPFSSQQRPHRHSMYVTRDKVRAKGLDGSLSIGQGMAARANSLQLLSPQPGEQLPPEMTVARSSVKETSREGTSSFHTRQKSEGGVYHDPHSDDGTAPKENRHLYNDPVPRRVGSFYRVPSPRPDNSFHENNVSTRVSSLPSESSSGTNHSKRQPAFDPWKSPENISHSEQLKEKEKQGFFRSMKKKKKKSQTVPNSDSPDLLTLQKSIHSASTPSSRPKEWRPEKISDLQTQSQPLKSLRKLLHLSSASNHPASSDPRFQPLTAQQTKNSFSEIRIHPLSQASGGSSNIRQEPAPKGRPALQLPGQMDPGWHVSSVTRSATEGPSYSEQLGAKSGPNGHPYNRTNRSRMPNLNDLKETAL
T20 sequence (P54760 16-987): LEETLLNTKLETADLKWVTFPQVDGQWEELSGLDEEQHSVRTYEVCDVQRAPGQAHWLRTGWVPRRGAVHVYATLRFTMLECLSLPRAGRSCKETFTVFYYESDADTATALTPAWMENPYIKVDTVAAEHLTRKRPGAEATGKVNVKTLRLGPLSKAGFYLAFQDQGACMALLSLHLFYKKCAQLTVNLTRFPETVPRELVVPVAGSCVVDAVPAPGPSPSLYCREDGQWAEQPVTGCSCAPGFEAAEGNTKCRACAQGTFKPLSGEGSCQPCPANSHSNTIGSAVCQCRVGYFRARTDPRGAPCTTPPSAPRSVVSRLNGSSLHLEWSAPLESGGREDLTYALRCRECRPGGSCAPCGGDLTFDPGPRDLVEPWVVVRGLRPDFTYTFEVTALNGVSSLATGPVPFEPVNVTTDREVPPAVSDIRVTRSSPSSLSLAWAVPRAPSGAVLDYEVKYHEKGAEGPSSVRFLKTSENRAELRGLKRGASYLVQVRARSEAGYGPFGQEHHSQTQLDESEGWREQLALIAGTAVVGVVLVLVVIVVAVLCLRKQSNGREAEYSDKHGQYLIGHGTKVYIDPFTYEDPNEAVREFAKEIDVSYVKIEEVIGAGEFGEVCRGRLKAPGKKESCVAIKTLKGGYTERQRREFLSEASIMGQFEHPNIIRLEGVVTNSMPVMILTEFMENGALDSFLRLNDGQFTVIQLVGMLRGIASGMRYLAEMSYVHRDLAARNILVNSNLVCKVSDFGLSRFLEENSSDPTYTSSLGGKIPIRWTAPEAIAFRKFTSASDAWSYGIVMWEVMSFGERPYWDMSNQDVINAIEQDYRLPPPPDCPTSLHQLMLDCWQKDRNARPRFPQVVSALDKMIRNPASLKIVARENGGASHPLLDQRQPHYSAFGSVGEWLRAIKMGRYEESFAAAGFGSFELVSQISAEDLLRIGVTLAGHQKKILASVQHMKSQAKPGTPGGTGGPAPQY
T2 sequence (O60674 840-1132 limits assumed): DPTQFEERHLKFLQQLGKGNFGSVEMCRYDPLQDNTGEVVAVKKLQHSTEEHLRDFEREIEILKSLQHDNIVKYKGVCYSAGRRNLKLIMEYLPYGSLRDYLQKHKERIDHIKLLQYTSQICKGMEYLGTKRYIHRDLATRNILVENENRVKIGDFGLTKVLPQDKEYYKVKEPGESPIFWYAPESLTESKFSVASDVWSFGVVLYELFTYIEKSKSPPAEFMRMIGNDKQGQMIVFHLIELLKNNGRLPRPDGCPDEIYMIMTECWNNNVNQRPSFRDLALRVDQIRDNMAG
T8 sequence (Q9H093 whole entry): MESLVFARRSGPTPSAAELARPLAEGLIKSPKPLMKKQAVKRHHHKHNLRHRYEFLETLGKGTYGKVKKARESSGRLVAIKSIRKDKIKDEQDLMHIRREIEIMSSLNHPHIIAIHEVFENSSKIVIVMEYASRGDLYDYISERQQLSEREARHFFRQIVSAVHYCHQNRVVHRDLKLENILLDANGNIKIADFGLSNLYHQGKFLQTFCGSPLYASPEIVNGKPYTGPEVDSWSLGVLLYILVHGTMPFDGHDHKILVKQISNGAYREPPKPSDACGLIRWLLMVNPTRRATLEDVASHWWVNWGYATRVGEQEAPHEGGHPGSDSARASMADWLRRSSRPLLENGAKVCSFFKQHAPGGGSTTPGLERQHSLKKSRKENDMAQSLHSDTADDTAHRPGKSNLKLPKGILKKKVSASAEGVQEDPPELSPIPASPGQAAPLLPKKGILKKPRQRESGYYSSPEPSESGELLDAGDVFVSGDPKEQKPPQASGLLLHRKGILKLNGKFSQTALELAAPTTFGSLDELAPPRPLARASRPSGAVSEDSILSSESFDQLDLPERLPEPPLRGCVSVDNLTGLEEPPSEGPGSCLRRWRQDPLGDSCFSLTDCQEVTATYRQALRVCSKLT
T16 sequence (O00506 whole entry): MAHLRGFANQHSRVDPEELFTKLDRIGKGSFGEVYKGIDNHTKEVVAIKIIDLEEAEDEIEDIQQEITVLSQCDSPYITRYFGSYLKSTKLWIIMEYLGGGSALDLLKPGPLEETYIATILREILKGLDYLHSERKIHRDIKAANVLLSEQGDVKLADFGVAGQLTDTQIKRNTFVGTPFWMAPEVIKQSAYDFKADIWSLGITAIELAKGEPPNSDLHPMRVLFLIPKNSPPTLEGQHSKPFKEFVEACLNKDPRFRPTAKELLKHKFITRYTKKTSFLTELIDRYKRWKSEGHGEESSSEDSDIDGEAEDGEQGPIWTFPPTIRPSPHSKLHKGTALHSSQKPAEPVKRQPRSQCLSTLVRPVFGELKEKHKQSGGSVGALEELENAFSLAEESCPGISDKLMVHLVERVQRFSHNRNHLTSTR
T23 sequence (Q04771 21-509): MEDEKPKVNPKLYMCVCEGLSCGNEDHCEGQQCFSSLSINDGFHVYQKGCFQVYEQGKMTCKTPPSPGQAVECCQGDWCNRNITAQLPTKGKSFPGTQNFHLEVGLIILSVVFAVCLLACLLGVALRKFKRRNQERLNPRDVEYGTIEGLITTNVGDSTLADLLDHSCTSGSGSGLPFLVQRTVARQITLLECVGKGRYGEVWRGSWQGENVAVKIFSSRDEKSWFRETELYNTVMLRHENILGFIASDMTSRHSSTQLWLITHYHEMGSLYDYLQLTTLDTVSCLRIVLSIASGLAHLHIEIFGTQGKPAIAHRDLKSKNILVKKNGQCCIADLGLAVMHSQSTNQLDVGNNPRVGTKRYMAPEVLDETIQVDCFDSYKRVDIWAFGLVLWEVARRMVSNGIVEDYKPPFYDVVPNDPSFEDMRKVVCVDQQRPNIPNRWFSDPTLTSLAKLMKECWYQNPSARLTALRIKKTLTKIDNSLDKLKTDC

COc1cc(/C=C2\N=C(N)NC2=O)ccc1O [Polyandrocarpamine A]
Score (WEE1): 100 | Score [1]: 97 | Score (ULK2): 100 | Score (EPHA3): 87 | Score (TRKC): 82 | Score (HIPK1): 52 | Score [2]: 100 | Score (SNARK): 100 | Score (SYK): 100 | Score (CSNK2A1): 12 | Score (TAK1): 100 | Score (LCK): 100 | Score (NDR2): 91 | Score (BMX): 100 | Score (TTK): 100 | Score (YSK1): 100 | Score (NEK9): 100 | Score (TIE2): 98 | Score (CDKL5): 100 | Score (EPHB4): 100 | Score (MAP3K3): 100 | Score (CTK): 100 | Score (ACVR1): 100 | Score [3]: 100 | Score (MAP4K2): 97 | Score (KIT(D816H)): 100 | Score (MAP3K15): 100 | Score (OSR1): 100 | Score (FLT3(D835H)): 94 | Score (EPHA8): 100 | Score (TNK2): 100 | Score (SLK): 100 | Score [4]: 86 | Score (INSR): 90 | Score (ULK3): 100 | Score [5]: 100
